Here are results for ten molecules from patent US20250115577A1, “BCL-2 Inhibitors” (Eil Therapeutics, Inc., priority 2021, published 2025).

The target of one data set is BCL-2 [G101V] (Homo sapiens (Human), UniProt P10415, G101V). As to the kind of experiment: BCL-2 [G101V] TR-FRET Assay (primary PPI inhibition). It is filed as binding. Conditions: 60 min incubation, read-out: BCL2[G101V] IC50. Here is the method: Example C. BCL-2 [G101V]TR-FRET Assay
The following assay concentrations and times were used: 0.22 ng/μl of BCL-2 (SinoBiological, #10195-H08E1), 5 μL of 1:100 anti-His Tb-labeled donor, 5 μL of 1:100 Dye-labeled acceptor, 5 μL of 1:40 BCL-2 Peptide Ligand (BPS Bioscience, #50223), and 2 μL of 200× test compound, with 60 min incubation time (final concentration of DMSO 0.5%). The results of the assay were read using a plate reader with the following parameters: TR FRET, 340ex/620 and 665em; 60 usec Delay; and 500 usec integration.
(§1) Instrumentation: CLARIOstar Plus (BMG LABTECH); Biomek FX for liquid handling (Beckman Coulter).

The target of another data set is BCL-xL (Homo sapiens (Human), UniProt Q07817). Put plainly: BCL-xL TR-FRET Assay (primary PPI inhibition). Conditions: 60 min incubation, read-out: BCLxL IC50. It is filed as binding. On the procedure:
Example B. BCL-xL TR-FRET Assay (BPS Bioscience, #50223)
The following assay concentrations and times were used: 10.5 ng of BCL-xL, 5 μL of 1:120 anti-His Tb-labeled donor, 5 μL of 1:120 Dye-labeled acceptor, 5 μL of 1:96 BCL-xL Peptide Ligand, 2 μL of 200× test compound, with 60 min incubation time (final concentration of DMSO 0.5%). The results of the assay were read using a plate reader with the following parameters: TR FRET, 340ex/620 and 665em; 60 usec Delay; and 500 usec integration.
as §1

In another data set the test system is RS4-11 cells. Put plainly: Cell viability assay (CellTiter-Glo), RS4-11. In kind it is cell-based. Conditions: Homo sapiens, RS4-11, 72 h, 3 days of incubation. On the procedure: (§2) Example D. Cell Viability Assays (Cell lines HEK293, RS4-11, MOLT-4)
(§3) Cells were seeded at a density of 4000 cells per well in the 384-well clear bottom plate (Greiner Cat #781090) to the 45 μL total volume of either DMEM (PanEco, Cat #C420, for HEK293) or RPMI (PanEco, Cat #C330, for other cell lines) with 10% FBS(HyClone Cat #SV30160.03). Prior to adding compounds, the HEK293 cells were allowed to adhere overnight at 37° C. and 5% CO2. The 500× compounds solutions in DMSO(Sigma Cat #D2650) were dispersed into a 384-well compound plate (Diamond Well Plate, Axigen, Cat #P-384-120 SQ-C—S) including only DMSO control. The 1 μL aliquots of the 500× compounds from the compound plate were added to 49 μL of culture medium in the Dilution plate (Diamond Well Plate, Axigen, Cat #P-384-120 SQ-C—S), mixed and then the 5 μL aliquts of the 10× compound solutions were transferred to cells followed by centrifugation at 100 g for 1 min. Final DMSO concentration was 0.2%. After 3 days of incubation the 10 μL aliquots of CellTiter-Glo (Promega, CAT #G7572) were added to the cells, plate was centrifuged at 100 g for 1 min and the luminescence was measured on the CLARIOstar Plus (BMG LABTECH) instrument.
as §1

In the next data set the target is BCL-2 (Homo sapiens (Human), UniProt P10415). As to the kind of experiment: BCL-2 TR-FRET Assay (primary PPI inhibition). In kind it is binding. The note with it: 60 min incubation, read-out: BCL2 IC50. On the procedure:
Example A. BCL-2 TR-FRET Assay (BPS Bioscience, #50222)
The following assay concentrations and times were used: 3 ng of BCL-2, 5 μL of 1:100 anti-His Tb-labeled donor, 5 μL of 1:100 Dye-labeled acceptor, 5 µL of 1:40 BCL-2 Peptide Ligand, and 2 μL of 200× test compound, with 60 min incubation time (final concentration of DMSO 0.5%). The results of the assay were read using a plate reader with the following parameters: TR FRET, 340ex/620 and 665em; 60 usec Delay; and 500 usec integration.
as §1

Data set [1] is described as follows: Cell viability assay (CellTiter-Glo), HEK293. Conditions: human, HEK293 cells, 3 days of incubation. In kind it is cell-based. On the procedure: as §2, §3, §1
Data set [2] concerns caspase-3 and -7 activities in RS4-11 cells. As to the kind of experiment: Caspase-3/7 activation (Caspase-Glo 3/7) in RS4-11 cells. It is filed as cell-based. Conditions: Homo sapiens, 3.5 h, read-out: Cas-3/7 EC50. On the procedure:
Example E. Caspase-3/7 Activation
Assay Principle: The Caspase-Glo 3/7 Assay is homogeneous, luminescent assay that measures caspase-3 and -7 activities. The assay provides a luminogenic caspase-3/7 substrate, which contains the tetrapeptide sequence DEVD, in a reagent optimized for caspase activity.
Assay Procedure: Incubate RS4-11 (ATCC, CRL-1873) cells in the 384-well white plate (Corning, #3570) with varying concentrations of test compounds for 3.5 h in a humidified incubator at 37° C. and 5% CO2 […]. Add 15 μL of the Caspase-Glo (Promega, #8212) reagent to each well and to incubate the plate for 30 min at rt. Read on the CLARIOstar Plus (BMG LABTECH) instrument.
as §1

The subject of a further data set is MOLT-4 cells. Put plainly: Cell viability assay (CellTiter-Glo), MOLT-4. Conditions: Homo sapiens, 72 h, 3 days of incubation. It is filed as cell-based. Here is the method:
as §2, §3, §1

The structures appear in SMILES notation.

BCL-xL, sequence (Q07817 whole entry): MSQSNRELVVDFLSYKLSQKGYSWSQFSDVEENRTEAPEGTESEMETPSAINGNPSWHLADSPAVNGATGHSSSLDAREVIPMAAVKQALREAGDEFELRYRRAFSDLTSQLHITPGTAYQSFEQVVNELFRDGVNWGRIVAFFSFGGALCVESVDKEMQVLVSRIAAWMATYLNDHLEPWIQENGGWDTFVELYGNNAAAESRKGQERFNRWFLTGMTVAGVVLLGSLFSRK

On to `N#Cc1ccccc1CN(C(=O)c1cc(-c2cc(Cl)ccc2C(=O)N2Cc3ccccc3C[C@H]2CN2CCOCC2)n2c1CCCC2)c1ccc(O)cc1` [Compound 3, 3-[5-chloro-2-[(3S)-3-(morpholinomethyl)-3,4-dihydro-1H-isoquinoline-2-carbonyl]phenyl]-N-[(2-cyanophenyl)methyl]-N-(4-hydroxyphenyl)-5,6,7,8-tetrahydroindolizine-1-carboxamide], for which the results for the IC50 on BCL-2 [G101V], on BCL-xL and on BCL-2 were no more than 100 nM, greater than 5000 nM and no more than 5 nM, respectively. For the same molecule, the figures for the 50% cytotoxic concentration (CC50) in the data set on RS4-11 cells and in the data set with MOLT-4 cells were 100 to 200 nM and no more than 5000 nM, respectively. The CC50 at 3 days in data set [1] was 10000 to 25000 nM. For the same molecule, the EC50 in data set [2] lay within 200 to 500 nM.

Regarding `COc1cccc(CN(C(=O)c2cc(-c3cc(Cl)ccc3C(=O)N3Cc4ccccc4C[C@H]3CN3CCOCC3)n(C)c2C)c2ccc3[nH]ncc3c2)c1C` [Compound 70, 5-[5-chloro-2-[(3S)-3-(morpholinomethyl)-3,4-dihydro-1H-isoquinoline-2-carbonyl]phenyl]-N-(1H-indazol-5-yl)-N-[(3-methoxy-2-methyl-phenyl)methyl]-1,2-dimethyl-pyrrole-3-carboxamide], the values for the IC50 on BCL-2 [G101V], at BCL-xL and on BCL-2 were greater than 1000 nM, greater than 5000 nM and 5 to 10 nM, respectively. In addition, the CC50 is greater than 200 nM with RS4-11 cells and no more than 5000 nM with MOLT-4 cells. The molecule further showed a CC50 at 3 days in data set [1] greater than 25000 nM. For the same molecule, the EC50 in data set [2] is greater than 500 nM.

On to `COc1cccc(CN(C(=O)c2cc(-c3cc(Cl)c(C#N)cc3C(=O)N3Cc4ccccc4C[C@H]3CN3CCOCC3)n(C)c2C)c2ccc(O)cc2)c1C` [Compound 9, 5-[5-chloro-4-cyano-2-[(3S)-3-(morpholinomethyl)-3,4-dihydro-1H-isoquinoline-2-carbonyl]phenyl]-N-(4-hydroxyphenyl)-N-[(3-methoxy-2-methyl-phenyl)methyl]-1,2-dimethyl-pyrrole-3-carboxamide], for which the half-maximal inhibitory concentration (IC50) at BCL-2 [G101V] is 100 to 1000 nM; at BCL-xL it was 2000 to 5000 nM; on BCL-2, no more than 5 nM. Moreover, the CC50 in the data set with RS4-11 cells is greater than 200 nM; in the data set on MOLT-4 cells, no more than 5000 nM. Besides, the CC50 at 3 days in data set [1] was 10000 to 25000 nM. Further, in data set [2], the EC50 was greater than 500 nM.

`COc1cc(C(=O)N2Cc3ccccc3C[C@H]2CN2CCOCC2)c(-c2cc(C(=O)N(Cc3cccc(OC)c3C)c3ccc(O)cc3)c(C)n2C)cc1Cl` [Compound 11, 5-[5-chloro-4-methoxy-2-[(3S)-3-(morpholinomethyl)-3,4-dihydro-1H-isoquinoline-2-carbonyl]phenyl]-N-(4-hydroxyphenyl)-N-[(3-methoxy-2-methyl-phenyl)methyl]-1,2-dimethyl-pyrrole-3-carboxamide]: the values for the IC50 at BCL-2 [G101V], at BCL-xL and on BCL-2 were 100 to 1000 nM, 2000 to 5000 nM and 10 to 50 nM, respectively. Moreover, the results for the half-maximal cytotoxic concentration (CC50) in the data set with RS4-11 cells and in the data set on MOLT-4 cells were 100 to 200 nM and no more than 5000 nM, respectively. Further, the cytotoxic concentration (CC50) at 3 days in data set [1] was greater than 25000 nM. Moreover, the EC50 in data set [2] is no more than 200 nM.

`COc1cccc(CN(C(=O)c2cc(-c3cc(NC(C)=O)ccc3C(=O)N3Cc4ccccc4C[C@H]3CN3CCOCC3)n(C)c2C)c2ccc(O)cc2)c1C` [Compound 48, 5-[5-acetamido-2-[(3S)-3-(morpholinomethyl)-3,4-dihydro-1H-isoquinoline-2-carbonyl]phenyl]-N-(4-hydroxyphenyl)-N-[(3-methoxy-2-methyl-phenyl)methyl]-1,2-dimethyl-pyrrole-3-carboxamide]: the values for the IC50 on BCL-2 [G101V], at BCL-xL and at BCL-2 were 100 to 1000 nM, 2000 to 5000 nM and 5 to 10 nM, respectively.

As for `COc1cccc(CN(C(=O)c2cc(-c3cc(S(C)(=O)=O)ccc3C(=O)N3Cc4ccccc4C[C@H]3CN3CCOCC3)n(C)c2C)c2ccc(O)cc2)c1C` [Compound 49, N-(4-hydroxyphenyl)-N-[(3-methoxy-2-methyl-phenyl)methyl]-1,2-dimethyl-5-[5-methylsulfonyl-2-[(3S)-3-(morpholinomethyl)-3,4-dihydro-1H-isoquinoline-2-carbonyl]phenyl]pyrrole-3-carboxamide], the results for the half-maximal inhibitory concentration (IC50) on BCL-2 [G101V], on BCL-xL and on BCL-2 were no more than 100 nM, 2000 to 5000 nM and no more than 5 nM, respectively. The 50% cytotoxic concentration (CC50) in the data set on RS4-11 cells was no more than 100 nM; with MOLT-4 cells, 5000 to 10000 nM. In data set [1], the CC50 at 3 days was greater than 25000 nM.

With `COc1cccc(CN(C(=O)c2cc(-c3cc(Cl)ccc3C(=O)N3Cc4ccccc4C[C@H]3CN3CCOCC3)n3c2CCCC3)c2ccc(Cl)cc2)c1C` [Compound 2, 3-[5-chloro-2-[(3S)-3-(morpholinomethyl)-3,4-dihydro-1H-isoquinoline-2-carbonyl]phenyl]-N-(4-chlorophenyl)-N-[(3-methoxy-2-methyl-phenyl)methyl]-5,6,7,8-tetrahydroindolizine-1-carboxamide], the results for the IC50 on BCL-2 [G101V], at BCL-xL and at BCL-2 were greater than 1000 nM, greater than 5000 nM and 10 to 50 nM, respectively. For the same molecule, the EC50 in data set [2] was greater than 500 nM.

On to `N#Cc1ccccc1CN(C(=O)c1cc(-c2cc(Cl)ccc2C(=O)N2Cc3ccccc3C[C@H]2CN2CCOCC2)n2c1CCCC2)c1ccc(Cl)cc1` [Compound 1, 3-[5-chloro-2-[(3S)-3-(morpholinomethyl)-3,4-dihydro-1H-isoquinoline-2-carbonyl]phenyl]-N-(4-chlorophenyl)-N-[(2-cyanophenyl)methyl]-5,6,7,8-tetrahydroindolizine-1-carboxamide], for which the IC50 on BCL-2 [G101V] is greater than 1000 nM; at BCL-xL, greater than 5000 nM; on BCL-2, greater than 50 nM. The EC50 in data set [2] was greater than 500 nM.

For the molecule `COc1ccccc1CN(C(=O)c1cc(-c2cc(Cl)ccc2C(=O)N2Cc3ccccc3C[C@H]2CN2CCOCC2)n(C)c1C)c1ccc2[nH]ncc2c1` [Compound 69, 5-[5-chloro-2-[(3S)-3-(morpholinomethyl)-3,4-dihydro-1H-isoquinoline-2-carbonyl]phenyl]-N-(1H-indazol-5-yl)-N-[(2-methoxyphenyl)methyl]-1,2-dimethyl-pyrrole-3-carboxamide], the results for the 50% inhibitory concentration (IC50) at BCL-xL and on BCL-2 were greater than 5000 nM and 10 to 50 nM, respectively. Moreover, the CC50 in the data set on RS4-11 cells was greater than 200 nM; in the data set with MOLT-4 cells it was greater than 10000 nM. Moreover, the CC50 at 3 days in data set [1] is greater than 25000 nM. The EC50 in data set [2] is greater than 500 nM.

As to `COc1cc(-c2cc(C(=O)N(Cc3cccc(OC)c3C)c3ccc(O)cc3)c(C)n2C)c(C(=O)N2Cc3ccccc3C[C@H]2CN2CCOCC2)cc1C#N` [Compound 58, 5-[4-cyano-5-methoxy-2-[(3S)-3-(morpholinomethyl)-3,4-dihydro-1H-isoquinoline-2-carbonyl]phenyl]-N-(4-hydroxyphenyl)-N-[(3-methoxy-2-methyl-phenyl)methyl]-1,2-dimethyl-pyrrole-3-carboxamide], the IC50 at BCL-xL was 2000 to 5000 nM; on BCL-2, greater than 50 nM. The half-maximal cytotoxic concentration (CC50) is greater than 200 nM with RS4-11 cells and no more than 5000 nM with MOLT-4 cells. The molecule further yielded a half-maximal cytotoxic concentration (CC50) at 3 days in data set [1] greater than 25000 nM. For the same molecule, in data set [2], the EC50 is greater than 500 nM.
